Numbers after ± are expanded uncertainties.
Experiments:
[1] = 300 K; 101.33 kPa; Crystal; Photoacoustics
[2] = isobaric coefficient of expansion; conditions: 300 K; 101.33 kPa; Crystal; Photoacoustics

Row | thermal diffusivity [1] [m2/s] | isobaric coefficient of expansion [2] | Structure (SMILES)
1 | 0.000116 ± 4e-06 | 1.3e-05 ± 1e-06 1/K | [Cu] [copper]
2 | 0.000174 ± 1.2e-05 | 1.4e-05 ± 1e-06 1/K | [Ag] [silver]
3 | 9.37e-05 ± 1.6e-06 | 1.5e-05 ± 1e-06 1/K | [Al] [aluminum]

From the NIST ThermoML archive (doi:10.1016/j.tca.2015.06.009)
